Measured values published in US11098043B2, “Certain imidazopyridines as cyclic AMP response element binding (CREB) binding protein (CBP) inhibitors and uses thereof” (University of Massachusetts, priority 2017, dated 2021).

Assays:
[1] = target: T1, CBP bromodomain (Homo sapiens, UniProt Q92793); assay: AlphaScreen in vitro binding assay with CBP; conditions: for IC50: AlphaScreen, isolated CBP bromodomain, means of at least two determinations; for Selectivity Value [BRD4(1) IC50 (μM)/CBP IC50 (μM)]: ratio BRD4(1) IC50 / CBP IC50
T1 construct: docked complex of Compound 21 with CBP bromodomain
T1 sequence (Q92793 1085-1192 limits assumed): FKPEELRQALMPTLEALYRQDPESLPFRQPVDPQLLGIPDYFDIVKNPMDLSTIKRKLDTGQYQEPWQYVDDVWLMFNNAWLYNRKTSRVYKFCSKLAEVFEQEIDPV
Procedure: (§1) To determine the binding selectivity of compounds provided, AlphaScreen in vitro binding assays were performed with either CBP or BRD4.
(§2) Assays were performed with minor modifications from the manufacturer's protocol (Perkin Elmer, USA). All reagents were diluted in AlphaScreen™ buffer (50 mM HEPES, 150 mM NaCl, 0.01% v/v Tween-20, 0.1% w/v BSA, pH 7.4). After addition of Alpha beads to master solutions, all subsequent steps were performed under low light conditions. A 2× solution of components with final concentrations of His-BRD4(1) at 20 nM or His-CBP at 50 nM, Ni-coated Acceptor bead at 10 μg/ml, and biotinylated-JQ1 at 10 nM or biotinylated peptide at 100 nM was added in 10 μL to 384-well plates (AlphaPlate-384, PerkinElmer) using an EL406 liquid handler (Biotek, USA). Plates were spun down at 1000 rpm. A 10-point 1: √{square root over (sqrt(10))} serial dilution of compounds in DMSO was prepared at 200× the final concentration. 100 nL of compound from these stock plates were added by pin transfer using a Janus Workstation (PerkinElmer). A 2× solution of streptavidin-coated donor beads with a final concentration of 10 μg/ml was added in a 10 μL volume. The plates were spun down again at 1000 rpm and sealed with foil to prevent light exposure and evaporation. The plates were then incubated at room temperature for 1 hour and read on an Envision 2104 (PerkinElmer) using the manufacturer's protocol. IC50 values were calculated using a 4-parameter logistic curve in Prism 6 (GraphPad Software, USA) after normalization to DMSO-treated negative control wells.

[2] = target: T2, BRD4(1) bromodomain (Homo sapiens, UniProt O60885); assay: AlphaScreen in vitro binding assay with BRD4; conditions: isolated BRD4 bromodomain, means of at least two determinations
T2 construct: final concentrations of His-BRD4(1) at 20 nM
Procedure: as §1
as §2, with “A 2× solution of components with final concentrations of His-BRD4(1) at 20 nM or His-CBP at 50 nM, Ni-coated Acceptor bead at 10 μg/ml, and biotinylated-JQ1 at 10 nM or biotinylated peptide at 100 nM was added in 10 μL to 384-well plates (AlphaPlate-384, PerkinElmer) using an EL406 liquid handler (Biotek, USA).” left out

IC50 [1] | Selectivity Value [BRD4(1) IC50 (μM)/CBP IC50 (μM)] [1] | IC50 [2] | SMILES
7.83 µM | >6 |  | Cc1noc(C)c1-c1ccn2c(NCC(=O)OC(C)(C)C)c(CCc3ccccc3)nc2c1 [Compound 4]
8.02 µM | <1 | 0.51 µM | Cc1[nH]nc2ccc(-c3ccn4c(NC5CCCCC5)c(CCc5ccccc5)nc4c3)cc12 [Compound 11]
> 50 µM | <1 | 3.03 µM | Cc1noc2ccc(-c3ccn4c(NC5CCCCC5)c(CCc5ccccc5)nc4c3)cc12 [Compound 12]
1.88 µM | 1 | 2.77 µM | Cc1noc(C)c1-c1ccn2c(NC(C)(C)CC(C)(C)C)c(CCc3ccccc3)nc2c1 [Compound 13, 7-(3,5-dimethylisoxazol-4-yl)-2-phenethyl-N-(2,4,4-trimethylpentan-2-yl)imidazo[1,2-a]pyridin-3-amine]
0.956 µM | 6 | 5.64 µM | Cc1noc(C)c1-c1ccn2c(NC(C)(C)C)c(CCc3ccccc3)nc2c1 [Compound 14, N-(tert-butyl)-7-(3,5-dimethylisoxazol-4-yl)-2-phenethylimidazo[1,2-a]pyridin-3-amine]
0.923 µM | 8 | 7.11 µM | COc1ccc(CCc2nc3cc(-c4c(C)noc4C)ccn3c2NC23CC4CC(CC(C4)C2)C3)cc1 [Compound 16, N-((3s,5s,7s)-adamantan-1-yl)-7-(3,5-dimethylisoxazol-4-yl)-2-(4-methoxyphenethyl)imidazo[1,2-a]pyridine-3-amine]
0.464 µM | 7 | 3.42 µM | COc1ccc(CCc2nc3cc(-c4c(C)noc4C)ccn3c2NCCN2CCOCC2)cc1 [Compound 17]
2.34 µM | >21 |  | COc1ccc(CCc2nc3cc(-c4c(C)noc4C)ccn3c2NC(C)(C)C)cc1 [Compound 20]
 |  | 5.19 µM | COc1ccc(CCc2nc3cc(-c4c(C)noc4C)ccn3c2NC2CCCCC2)cc1Cl [Compound 21, 2-(3-chloro-4-methoxyphenethyl)-N-cyclohexyl-7-(3,5-dimethylisoxazol-4-yl)imidazo[1,2-a]pyridin-3-amine]
0.214 µM | 30 | 6.48 µM | CCOc1ccc(CCc2nc3cc(-c4c(C)noc4C)ccn3c2NC2CCCCC2)cc1 [Compound 22, N-cyclohexyl-7-(3,5-dimethylisoxazol-4-yl)-2-(4-ethoxyphenethyl)imidazo[1,2-a]pyridin-3-amine]
6.07 µM | 2 | 11.2 µM | COc1ccc(Cc2nc3cc(-c4c(C)noc4C)ccn3c2NC2CCCCC2)cc1 [Compound 26]
4.95 µM | 3 | 12.3 µM | COc1ccc(CCCc2nc3cc(-c4c(C)noc4C)ccn3c2NC2CCCCC2)cc1 [Compound 27, N-cyclohexyl-7-(3,5-dimethylisoxazol-4-yl)-2-(3-(4-methoxyphenyl)propyl)imidazo[1,2-a]pyridin-3-amine]
20.9 µM | >2 |  | COc1ccc(CCc2nc3cc(-c4c(C)noc4C)ccn3c2NC(C)(C)CC(C)(C)C)cc1 [Compound 28, 7-(3,5-dimethylisoxazol-4-yl)-2-(4-methoxyphenethyl)-N-(2,4,4-trimethylpentan-2-yl)imidazo[1,2-a]pyridin-3-amine]
38.5 µM | >1 | > 50 µM | CCOc1ccc(CCc2nc3cc(-c4c(C)noc4C)ccn3c2NC(C)(C)CC(C)(C)C)cc1 [Compound 29, 7-(3,5-dimethylisoxazol-4-yl)-2-(4-ethoxyphenethyl)-N-(2,4,4-trimethylpentan-2-yl)imidazo[1,2-a]pyridin-3-amine]
 | 1 |  | Cc1noc(C)c1-c1ccn2c(NC(C)(C)CC(C)(C)C)c(CCc3ccc(OC(C)C)cc3)nc2c1 [Compound 30]
20.5 µM | >2 |  | CCOc1ccc(CCc2nc3cc(-c4c(C)noc4C)ccn3c2NC(C)(C)CC(C)(C)C)cc1Cl [Compound 32]

The next lines start with the molecule.

SMILES | IC50 [1] | Selectivity Value [BRD4(1) IC50 (μM)/CBP IC50 (μM)] [1] | IC50 [2]
COc1ccc(-c2nc3cc(C)cc(C)n3c2NC23CC4CC(CC(C4)C2)C3)cc1 [Compound 1, N-((3s,5s,7s)-adamantan-1-yl)-2-(4-methoxyphenyl)-5,7-dimethylimidazo[1,2-a]pyridin-3-amine] | 16.1 µM | >3 | 
COc1ccc(-c2nc3cc(-c4c(C)noc4C)ccn3c2NC23CC4CC(CC(C4)C2)C3)cc1 [Compound 2] | 2.22 µM | >23 | 
COc1ccc(-c2nc3cc(-c4c(C)noc4C)ccn3c2NC2CCCCC2)cc1 [Compound 3] | 14.2 µM | >4 | 
Cc1noc(C)c1-c1ccn2c(NC3CCCCC3)c(CCc3ccccc3)nc2c1 [Compound 5, N-cyclohexyl-7-(3,5-dimethylisoxazol-4-yl)-2-phenethylimidazo[1,2-a]pyridin-3-amine] | 0.718 µM | 10 | 7.43 µM
Cc1noc(C)c1-c1ccn2c(NC34CC5CC(CC(C5)C3)C4)c(CCc3ccccc3)nc2c1 [Compound 6] | 0.507 µM | 7 | 3.38 µM
COc1ccc(-c2nc3cc(-c4c(C)noc4C)ccn3c2NCC(=O)OC(C)(C)C)cc1 [Compound 7] | 1.17 µM | 3 | 2.96 µM
COc1ccc(-c2nc3cc(C)cc(C)n3c2NC(C)(C)CC(C)(C)C)cc1 [Compound 8, 2-(4-methoxyphenyl)-5,7-dimethyl-N-(2,4,4-trimethylpentan-2-yl)imidazo[1,2-a]pyridin-3-amine] | 16.3 µM | >3 | 
CN1Cc2cc(-c3ccn4c(NC5CCCCC5)c(CCc5ccccc5)nc4c3)ccc2NC1=O [Compound 10] | 8.12 µM | <1 | 7.55 µM
COc1ccc(CCc2nc3cc(-c4c(C)noc4C)ccn3c2NCC(=O)OC(C)(C)C)cc1 [Compound 15] | 1.55 µM | 3 | 4.22 µM
COc1ccc(CCc2nc3cc(-c4c(C)noc4C)ccn3c2NC2CCCCC2)cc1 [Compound 18, N-cyclohexyl-7-(3,5-dimethylisoxazol-4-yl)-2-(4-methoxyphenethyl)imidazo[1,2-a]pyridin-3-amine] | 0.159 µM | 41 | 6.59 µM
COc1ccc(CCc2nc3cc(-c4c(C)noc4C)ccn3c2NC(C)C)cc1 [Compound 19, 7-(3,5-dimethylisoxazol-4-yl)-N-isopropyl-2-(4-methoxyphenethyl)imidazo[1,2-a]pyridin-3-amine] | 0.296 µM | 34 | 10.1 µM
CCCOc1ccc(CCc2nc3cc(-c4c(C)noc4C)ccn3c2NC2CCCCC2)cc1 [Compound 23] | 0.633 µM | 28 | 17.9 µM
COc1ccc(CCc2nc3cc(-c4c(C)noc4C)ccn3c2NCc2ccccc2)cc1 [Compound 24] | 1.92 µM | 4 | 8.47 µM
COc1ccc(CCc2nc3cc(-c4c(C)noc4C)ccn3c2Nc2ccc(Cl)cc2)cc1 [Compound 25] | 1.61 µM | 5 | 7.95 µM
CCOc1ccc(CCc2nc3cc(-c4c(C)noc4C)ccn3c2NC2CCCCC2)cc1Cl [Compound 31] | 2.54 µM | 20 | 
COc1ccc(CCCc2nc3cc(-c4c(C)noc4C)ccn3c2NC(C)(C)CC(C)(C)C)cc1 [Compound 35] |  | 1 | 
Cc1sc2c(c1C)C(c1ccc(Cl)cc1)=N[C@@H](CC(=O)OC(C)(C)C)c1nnc(C)n1-2 [JQ1, reference compound] | > 50 µM |  | 
